Test results taken from patent US20140294849A1, “COMPOSITIONS AND USES” (GLAXOSMITHKLINE BIOLOGICALS SA, priority 2011, published 2014).

What was measured:
[1] = tested on: Lineage-CD11b+ monocytes in peripheral blood; test: Monocyte analysis and counting after adjuvant injection in mice; type: in vivo, C57BL/6 mice; details: Example 12, single i.m. injection
Protocol: (§1) 24-Hours after injection of the TLR adjuvants, peripheral blood was drawn from C57BL/6 mice via cardiac puncture with lithium-heparin as anticoagulant. Red blood cell lysis was performed twice on pooled blood with Ammonium Chloride-based Buffer (Sigma, Steinheim, Germany) and cells were counted with the EasyCount™ System (Immunicon). […] Cells were finally washed three times and fixed for 15 min. with a 2% paraformaldehyde solution in PBS. Fluorescence minus one (FMO) controls were always included in the assays for fluorescent compensation setting. Samples were acquired on a flow cytometer (BD FACSCanto II) and data analyzed with the FACSDiva software (BD Biosciences). Monocytes were identified by their Side/Forward scatter properties and gated as CD3-/CD45R/B220-/Ly-6G-/NK1.1-(Lineage-)/CD11b+ cells. CD11b+ monocyte frequency was reported as a percentage of the total cells excluding debris.
as §1, with “24 hours” for “24-Hours”, “each immunomodulator,” for “the TLR adjuvants,”, “min” for “min.”, “monocytes” for “monocyte”
Cells were finally washed twice and fixed for 15 min. with a 2% paraformaldehyde solution in PBS. FMOs controls were always included in the assays. Samples were acquired on a flow cytometer (BD FACSCanto II) and data analyzed with the FACSDiva software (BD Biosciences). Monocytes were identified and counted by their Side/Forward scatter properties, excluding debris and gated as CD3-/CD45R/B220-/Ly-6G-/NK1.1-(Lineage-)/CD11 b+ cells.

[2] = tested on: CD11b+ peripheral blood monocytes; test: Ex vivo uptake assay of Aβ1-42; type: cell-based, C57BL/6 mice; details: Example 14; AS01B mouse full dose (5 ug per mouse) or CRX601 2 μg, i.m.
Protocol: Preparation of cells: Peripheral blood was drawn from C57BL/6 mice via cardiac puncture with lithium-heparin as anticoagulant, 24-hours after injection of the adjuvants used herein. Red blood cell lysis was performed twice on pooled blood with Ammonium Chloride-based Buffer (Sigma, Steinheim, Germany) and cells were counted with the EasyCount™ System (Immunicon). […]
FACS analysis: cells were harvested after incubation with fluorescent Aβ peptide with Trypsin/EDTA and cold PBS and washed three times. 500,000 cells were incubated in 96-well plate for 10 min. on ice in the presence of Rat anti-Mouse CD16/CD32 (clone 2.4G2—BD Fc Block™) and further stained for 30 min. with a combination of the following directly conjugated antibodies at their pre-determined optimal concentration: PE-Hamster anti-Mouse CD3 (clone 145-2C11), Rat anti-Mouse CD45R/B220 (clone RA3-6B2), Rat anti-Mouse Ly-6G (clone 1A8), Mouse anti-Mouse NK1.1 (clone PK136), APC-conjugated Rat anti-Mouse CD11b (clone M1/70), PE-Cy7-conjugated Hamster anti-Mouse CD11c (clone HL3), (all from BD PharMingen). […]
Samples were acquired on a flow cytometer (BD FACSCanto II) and data analyzed with the FACSDiva software (BD Biosciences). […]

CCCCCCCCCCC[C@H](CC(=O)N[C@H]1[C@H](OC[C@H](NC(=O)C[C@@H](CCCCCCCCCCC)OCCCCCCCCCC)C(=O)O)O[C@H](CO)[C@@H](OP(=O)(O)O)[C@@H]1OC(=O)C[C@@H](CCCCCCCCCCC)OCCCCCCCCCC)OCCCCCCCCCC [CRX601]
monocyte effect at 20 μg dose [1]: down modulated
dose of maximum monocyte response ([1]; 0.2 to 20 ug/mouse): 10 µg
dose enough to trigger an increase of the monocyte count ([1]; 24 hrs, compared to PBS): 1 µg
ex vivo uptake of Aβ42 by monocytes compared to PBS group [2]: higher amount of Aβ42
